Data reported in ChEMBL document CHEMBL4251578, “Design, synthesis and biological evaluation of novel 2-aminobenzamides containing dithiocarbamate moiety as histone deacetylase inhibitors and potent antitumor agents” (Eur J Med Chem, 2018).

Assays:
MGC-803 [1] = test: Antiproliferative activity against human MGC803 cells at 8 uM after 72 hrs by CCK-8 assay relative to control; type: functional; details: MGC-803, 72 h
A-375 [2] = test: Antiproliferative activity against human A375 cells at 8 uM after 72 hrs by CCK-8 assay relative to control; type: functional; details: A-375, 72 h
HeLa = test: Antiproliferative activity against human HeLa cells at 2 uM after 72 hrs by CCK-8 assay relative to control; type: functional
A-375 [3] = test: Antiproliferative activity against human A375 cells after 72 hrs by CCK-8 assay; type: functional, cell-based; details: for IC50: A-375, 72 h
MGC-803 [4] = test: Antiproliferative activity against human MGC803 cells after 72 hrs by CCK-8 assay; type: functional, cell-based; details: for IC50: MGC-803, 72 h
Histone deacetylase = test: Inhibition of HDAC in human HeLa cell extract using Fluor de Lys-Green as substrate preincubated for 5 mins followed by substrate addition and measured after 1 hr by fluorescence assay; type: protein assay
Histone deacetylase 1 = Histone deacetylase 1 (Homo sapiens, UniProt Q13547); test: Inhibition of human recombinant HDAC1 using Fluor de Lys-Green as substrate preincubated for 5 mins followed by substrate addition and measured after 1 hr by fluorescence assay
Histone deacetylase 2 = Histone deacetylase 2 (Homo sapiens, UniProt Q92769); test: Inhibition of human recombinant HDAC2 using Fluor de Lys-Green as substrate preincubated for 5 mins followed by substrate addition and measured after 1 hr by fluorescence assay
SMMC-7721 [5] = test: Induction of apoptosis in human SMMC7721 cells assessed as early apoptotic cells at 0.125 umol/L after 72 hrs by Alexa Fluor 488 Annexin/propidium iodide staining-based flow cytometric analysis (reference value: 0.09%); type: functional
SMMC-7721 [6] = test: Induction of apoptosis in human SMMC7721 cells assessed as necrotic cells at 0.125 umol/L after 72 hrs by Alexa Fluor 488 Annexin/propidium iodide staining-based flow cytometric analysis (reference value: 2.48%); type: functional
SMMC-7721 [7] = test: Induction of apoptosis in human SMMC7721 cells assessed as necrotic cells at 1 umol/L after 72 hrs by Alexa Fluor 488 Annexin/propidium iodide staining-based flow cytometric analysis (reference value: 2.48%); type: functional
SMMC-7721 [8] = test: Induction of apoptosis in human SMMC7721 cells assessed as viable cells at 4 umol/L after 72 hrs by Alexa Fluor 488 Annexin/propidium iodide staining-based flow cytometric analysis (reference value: 97.14%); type: functional; details: SMMC-7721, 72 h, read-out: Activity
SMMC-7721 [9] = test: Induction of apoptosis in human SMMC7721 cells assessed as late apoptotic cells at 4 umol/L after 72 hrs by Alexa Fluor 488 Annexin/propidium iodide staining-based flow cytometric analysis (reference value: 0.29%); type: functional
SMMC-7721 [10] = test: Cell cycle arrest in human SMMC7721 cells assessed as accumulation of cells at S phase at 1 umol/L after 72 hrs by propidium iodide staining-based flow cytometric analysis (reference value: 5.21%); type: functional
SMMC-7721 [11] = test: Cell cycle arrest in human SMMC7721 cells assessed as accumulation of cells at G0/G1 phase at 4 umol/L after 72 hrs by propidium iodide staining-based flow cytometric analysis (reference value: 80.65%); type: functional
SMMC-7721 [12] = test: Cell cycle arrest in human SMMC7721 cells assessed as accumulation of cells at S phase at 4 umol/L after 72 hrs by propidium iodide staining-based flow cytometric analysis (reference value: 5.21%); type: functional
SMMC-7721 [13] = test: Induction of apoptosis in human SMMC7721 cells after 72 hrs by Alexa Fluor 488 Annexin/propidium iodide staining-based flow cytometric analysis; type: functional, cell-based
SMMC-7721 [14] = test: Cell cycle arrest in human SMMC7721 cells assessed as accumulation of cells at […] phase after 72 hrs by propidium iodide staining-based flow cytometric analysis; type: functional

Chain of Histone deacetylase 1 (Q13547 whole entry): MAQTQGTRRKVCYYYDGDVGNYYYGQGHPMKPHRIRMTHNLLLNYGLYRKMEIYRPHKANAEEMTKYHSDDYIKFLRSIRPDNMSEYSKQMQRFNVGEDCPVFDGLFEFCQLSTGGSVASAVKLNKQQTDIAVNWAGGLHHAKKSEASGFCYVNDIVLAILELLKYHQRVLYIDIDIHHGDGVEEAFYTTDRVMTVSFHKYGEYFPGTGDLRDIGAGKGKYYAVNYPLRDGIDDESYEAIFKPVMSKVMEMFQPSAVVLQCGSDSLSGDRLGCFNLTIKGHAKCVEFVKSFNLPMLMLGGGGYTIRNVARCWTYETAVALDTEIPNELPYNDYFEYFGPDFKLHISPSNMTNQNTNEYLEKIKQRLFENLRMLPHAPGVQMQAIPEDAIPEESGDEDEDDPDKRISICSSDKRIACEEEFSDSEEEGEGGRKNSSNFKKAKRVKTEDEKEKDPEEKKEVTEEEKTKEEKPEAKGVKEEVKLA
Chain of Histone deacetylase 2 (Q92769 whole entry): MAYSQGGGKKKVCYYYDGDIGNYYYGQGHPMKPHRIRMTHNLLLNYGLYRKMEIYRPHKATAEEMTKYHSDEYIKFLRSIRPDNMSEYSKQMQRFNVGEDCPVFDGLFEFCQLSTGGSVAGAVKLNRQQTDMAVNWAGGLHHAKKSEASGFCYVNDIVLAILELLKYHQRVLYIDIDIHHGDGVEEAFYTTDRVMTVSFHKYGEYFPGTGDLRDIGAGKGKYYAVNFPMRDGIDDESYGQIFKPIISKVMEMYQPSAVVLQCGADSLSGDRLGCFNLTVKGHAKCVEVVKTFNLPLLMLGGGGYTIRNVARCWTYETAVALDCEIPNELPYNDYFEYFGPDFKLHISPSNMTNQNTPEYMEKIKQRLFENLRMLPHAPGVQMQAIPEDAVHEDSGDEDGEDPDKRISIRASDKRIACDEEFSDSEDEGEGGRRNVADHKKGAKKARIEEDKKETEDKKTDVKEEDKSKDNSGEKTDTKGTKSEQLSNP

Row | SMILES | inhibition at 8 µM (MGC-803 [1]) [%] | inhibition at 8 µM (A-375 [2]) [%] | inhibition at 2 µM (HeLa) [%] | Activity (A-375 [3]) | IC50 (A-375 [3]) [µM] | Activity (MGC-803 [4]) | IC50 (MGC-803 [4]) [µM] | IC50 (Histone deacetylase) [µM] | IC50 (Histone deacetylase 1) [µM] | IC50 (Histone deacetylase 2) [µM] | Activity (SMMC-7721 [5]) [%] | Activity (SMMC-7721 [6]) [%] | Activity (SMMC-7721 [7]) [%] | viability at 4 µM (SMMC-7721 [8]) [%] | Activity (SMMC-7721 [9]) [%] | Activity (SMMC-7721 [10]) [%] | Activity (SMMC-7721 [11]) [%] | Activity (SMMC-7721 [12]) [%] | Activity (SMMC-7721 [13]) | Activity (SMMC-7721 [14])
1 | Nc1ccccc1NC(=O)c1ccc(CSC(=S)N2CCN(c3ccncc3)CC2)cc1 | 87.1 | 90.7 | 77 | Dose-dependent effect | 1.27 | Dose-dependent effect | 1.58 | 0.72 | 0.48 | 0.47 | 3.66 | 11.27 | 5.01 | 24.3 | 52.78 | 7.04 | 85.19 | 2.76 | Dose-dependent effect | 
2 | CCN(Cc1ccncc1)C(=S)SCc1ccc(C(=O)Nc2ccccc2N)cc1 | 85.2 | 86.2 | 63.5 |  | 1.94 |  | 1.37 | 1.8 | 1.38 | 0.9 | 2.75 | 12.93 | 13.18 | 43 | 31.88 | 7.45 | 41.87 | 9.19 | Dose-dependent effect | Dose-dependent effect
3 | Nc1ccccc1NC(=O)c1ccc(CSC(=S)N2CCc3ccccc3C2)cc1 | 87.5 | 86.7 | 54.4 |  | 1.97 |  | 0.94 |  | 2.57 | 3.23 | 14.71 | 3.49 | 2.9 | 46 | 26.7 | 9.25 | 64.06 | 7.63 | Dose-dependent effect | Dose-dependent effect
